# Values quoted from earlier work in patent publication US20220087960A1, “Oral Pharmaceutical Immediate Release Composition” (Aardvark Therapeutics Inc., priority 2020, published 2022).
# Tested on: C57BL/6 DIO mice
# Conditions: 60 μmol/kg (26.8 mg/kg) once daily, 28-day period; cited from earlier work
smiles,measurement,value
"CC[N+](CC)(CC(=O)Nc1c(C)cccc1C)Cc1ccccc1.O=C([O-])c1ccccc1 [DB, benzyl-[2-(2,6-dimethylanilino)-2-oxoethyl]-diethylazanium benzoate]",body weight as compared to vehicle,induced a decrease in body weight
